# Data from patent US20010020032A1, “COATED PARTICLE FORMULATION” (priority 1996, published 2001).
# Key:
# [1] = Polymorphic stability of Form II on solvent contact; type: physicochemical; conditions: contact with methylene chloride
# [2] = Detection of radiolabelled compound in saliva; type: in vivo
# Description: Olanzapine is effective over a wide dosage range, the actual dose administered being dependent on the condition being treated. For example, in the treatment of adult humans, dosages of from about 0.25 to 50 mg, preferably from 1 to 30 mg, and most preferably 1 to 25 mg per day may be used. A once a day dosage is normally sufficient, although divided doses may be administered. For treatment of central nervous system disorders, a dose range of from 1 to 30 mg, preferably 1 to 25 mg per day is suitable.
# [3] = Stability studies: discoloration on storage or excipient contact; type: physicochemical; conditions: olanzapine substance in contact with polyethylene glycol, particularly under moist conditions
compound,measurement,setting,value
"Cc1cc2c(s1)Nc1ccccc1N=C2N1CCN(C)CC1 [Form II, 2-methyl-4-(4-methyl-1-piperazinyl)-10H-thieno[2,3-b][1,5]benzodiazepine]",conversion to other polymorphic forms,[1],can be converted to less desirable polymorphic forms
"Cc1cc2c(s1)Nc1ccccc1N=C2N1CCN(C)CC1 [Radiolabelled Form II, 2-methyl-4-(4-methyl-1-piperazinyl)-10H-thieno-[2,3-b][1,5]benzodiazepine]",detection in saliva,[2],can be detected in the saliva
"Cc1cc2c(s1)Nc1ccccc1N=C2N1CCN(C)CC1 [olanzapine, 2-methyl-4-(4-methyl-1-piperazinyl)-10H-thieno[2,3-b][1,5] benzodiazepine]",discoloration on polyethylene glycol contact,[3],produces undesired discoloration
